Data set [1] in a line: Photochemical properties of panitumumab conjugates (absorption/emission spectra, H-aggregation, absolute quantum yield). Format: physicochemical. How it is done: (§1) Absolute quantum yields (ΦF) were measured using a Quantaurus-QY spectrometer (Hamamatsu, model C11374). This instrument is equipped with an integrating sphere to determine photons absorbed and emitted by a sample. Measurements were carried out at a concentration of 500 nM in PBS (50 mM, pH 7.4) and self-absorption corrections were performed using the instrument software.
The photochemical properties of these conjugates were analyzed by several methods. Absorption/emission curves were obtained following dilution in 50 mM PBS to yield solutions that were 500 nM in protein concentration. […] A 3 h incubation time at room temperature elapsed prior to acquisition. Conjugates were diluted 40-fold into 1:1 MeOH:50 mM PBS and their absorption spectra were recorded on a plate reader using a 384 well plate transparent in the 280 nm range (i.e. UV Co-Star μclear 384 well plate from Greiner Bio-One).
To examine the relative brightness of these conjugates on an in vivo system, phantom imaging on the Perkin-Elmer IVIS® imaging system was performed.

The subject of another data set is MDA-MB-468 tumor. The data set can be described thus: Dose lowering in vivo imaging study (10, 5, 1 μg) of DOL 4 conjugates. On the set-up: species or system athymic nude mice. To be noted: for tumor signal visualization over dosage range: DOL 4, 10, 5 and 1 μg tail injection. How it is done: (§2) Animal Tumors Models: In vivo studies were performed according to the Frederick National Laboratory for Cancer Research (Frederick, Md.) Animal Care and Use committee guidelines. Fluorescence was longitudinally monitored employing the IVIS spectrum imager (PerkinElmer Inc, Waltham, Mass.). Imager specific Living Image software was used for image acquisition and analysis. Mice body temperature were maintained constant at 37° C. during the imaging procedure with a heated pad located under the anesthesia induction chamber, imaging table, and post procedure recovery cage. All mice were anesthetized in the induction chamber with 3% isoflurane with filtered (0.2 μm) air at 1 liter/minute flow rate for 3-4 minutes and then modified for imaging to 2% with O2 as a carrier with a flow rate of 1 liter/minute. Static 2D images were acquired with the following parameters: excitation filter 745±15 nm, emission filter 800±10 nm, f/stop2, medium binning (8×8) and auto exposure (typically 1-60 seconds). 5-week old female athymic nude mice were purchased from Charles River Laboratories International, Inc. (NCI-Frederick). MDA-MB-468 (5×10^6) in 100 μL of Hanks Balanced Salt Solution were injected the mice subcutaneously in the right dorsum. The size of the tumors were continuously monitored to reach 4-6 mm. In vivo studies were initiated 10 days post cell injection of the mice.
(§3) Data Analysis: Images were obtained using a Pearl Imager (LI-COR) using 800 nm fluorescence channel. Using white light images, the tumors were identified, and regions of interest (ROIs) were located on the tumors, livers, and necks (used as background). The intensities of ROIs were measured based on the total radiance efficiency using fluorescence images and analyzed using Living Image software. Statistics (unpaired t-test) were carried out using Prism 8.
A dose lowering study with the goal of defining an optimal dose for FNIR-Tag conjugates was performed. Three doses, 10 μg, 5 μg, and 1 μg, which span the lower end of the doses used in prior studies, were examined. […]

A short description of data set [2]: Photostability (photooxidation kinetics) of free dyes under 780 nm LED. To be noted: for photooxidation k: 1 μM in 50 mM PBS pH 7.4, 780 nm+/−20 nm LED, 20 mW/cm^2. Format: physicochemical. How it is done: Stock solutions of 5 mM FNIR-Tag and IRDye®-800CW in DMSO were diluted into 50 mM PBS (pH=7.4) to afford 1 μM solutions. The photostability was determined using a procedure described previously using a 780 nm+/−20 nm LED at a light intensity of 20 mW/cm^2 (Nani et al., ACS Central Sci 2017, 3:329). […] As expected both of the free dyes have similar photostability.

Data set [3] in a line: Absorption/emission maxima, molar absorption coefficient, absolute quantum yield and brightness of free dyes. The settings on record: free dye; for ε / λabs / ΦF (PBS): PBS; for ΦF (PBS): absolute quantum yield; for ε × ΦF: brightness in PBS; for Relative brightness (PBS): relative to FNIR-Tag = 1.0; for λem: λexcitation = 740 nm. Format: physicochemical. How it is done:
Determination of Molar Absorption Coefficients and Absolute Fluorescence Quantum Yields: Molar absorption coefficients (c) were determined in PBS (pH 7.4) or 1:1 (v/v) MeOH/PBS (pH 7.4) using Beer's law, from plots of absorbance vs. concentration. Measurements were performed in 10 mm path length quartz cuvettes (Hellma 111-QS), maintained at 25° C., with absorbance at the highest concentration≤0.20.
as §1
Properties of FNIR-Tag and IRDye®-800CW are shown below in Table 1. […] Both dyes have similar absorption coefficients (ε), absolute quantum yields (ΦF) and brightness (ε×ΦF) in PBS solution, with free IR-800CW being slightly brighter

The next data set deals with EGFR+ tumors. As to the kind of experiment: In vivo fluorescence imaging of panitumumab conjugates, 100 μg dose. The settings on record: for tumor radiance output relative to IRDye-800CW conjugate: 48 h (peak accumulation), normalized to tumor size. Also noted: species or system athymic nude mice. As for the experimental part: as §2, §3
Reduced dye aggregation was speculated to impact the pharmacokinetics. […] Fluorescence dorsal and ventral images were recorded at 0 h, 10 min, 24 h, 48 h, and 1 week post-injection. […]

[4] abbreviates: panitumumab conjugates DOL 1, 2, 4, 500 nM in PBS.

The values below come from patent publication US11746086B2, “Non-aggregating heptamethine cyanine fluorophores for in vivo imaging” (The USA, as represented by the Secretary, Department of …, priority 2018, dated 2023).

With “IRDye®-800CW conjugates: panitumumab labeled with IRDye®-800CW-NHS, comparator conjugates [reference compound]”, the “absolute quantum yield of fluorescence (ΦF), end of decrease with increased labeling” value in data set [1] (antibody conjugates, high labeling, PBS, 250 nM effective dye concentration) was around 2.5%. Further, the “absolute quantum yield of fluorescence (ΦF), start of decrease with increased labeling” value in data set [1] (antibody conjugates, low labeling, PBS, 250 nM effective dye concentration) was around 9%. Moreover, the “tumor signal visualization over dosage range” value in the data set with MDA-MB-468 tumor is “could not be visualized below 5 μg”.
Turning to `COCCOCCOCCN1/C(=C/C=C2\CCCC(/C=C/C3=[N+](CCOCCOCCOC)c4ccc(S(=O)(=O)[O-])cc4C3(C)C)=C2OCCC[N+](C)(C)CCCC(=O)ON2C(=O)CCC2=O)C(C)(C)c2cc(S(=O)(=O)[O-])ccc21` [FNIR-Tag], in data set [2], the photooxidation k is given as 0.04274. Moreover, the half-life (in general, how long it takes for the measured level to halve) at 1 μM in data set [2] (buffer, pH 7.4) is 16.2 min. The “quantum yield of the free dye” value in data set [1] (free dye) stood at 10%. Moreover, in data set [1] (setting [4]), the “H-aggregate peak in the absorption spectrum (~705 nm)” value is “does not form a significant H-aggregate band”. In data set [3], the ε was 200 000 M^−1 · cm^−1, the λabs worked out at 765 nm, the “ΦF (PBS)” value came to 0.099 and the “ε × ΦF” value was 19 800. For the same compound, the “Relative brightness (PBS)” value in data set [3] was 1.0. Moreover, in the data set on EGFR+ tumors (DOL 2, 100 μg tail injection), the “tumor radiance output relative to IRDye-800CW conjugate” value is 2.5 ×. The “tumor radiance output relative to IRDye-800CW conjugate” value in the data set with EGFR+ tumors (DOL 4, 100 μg tail injection) is 7.1 ×.
As for `CC1(C)C(=CC=C2CCCC(C=CC3=[N+](CCCCCC(=O)[O-])c4ccc(S(=O)(=O)[O-])cc4C3(C)C)=C2Oc2ccc(S(=O)(=O)[O-])cc2)N(CCCCS(=O)(=O)[O-])c2ccc(S(=O)(=O)[O-])cc21.[Na+].[Na+].[Na+].[Na+]` [IRDye®-800CW], the photooxidation k in data set [2] is 0.04463. For the same compound, in data set [1] (setting [4]), the “fluorescent emission as function of labeling density” value is reported as “nearly constant across the range of labeling density”. Also, in data set [3], the ε is on record as 240 000 M^−1 · cm^−1, the λabs amounted to 774 nm, the “ΦF (PBS)” value was determined as 0.087 and the “ε × ΦF” value is 23 490. Moreover, in data set [3], the “Relative brightness (PBS)” value was 1.2 and the λem was 795ª nm. Besides, in data set [3] (listed as IR-800CW), the λem was 795 nm. The “liver uptake (liver-to-background ratio) compared with FNIR-Tag conjugates” value with EGFR+ tumors (100 μg, DOL 2 and 4, 10 min time point) was “significantly higher liver uptake”.
As to FNIR-Tag-panitumumab conjugates, the “absolute quantum yield of fluorescence (ΦF) with increasing labeling density” value in data set [1] (conjugates DOL 1, 2, 4, PBS, 250 nM effective dye concentration) is listed as around 10%. In addition, in data set [1] (setting [4]), the “fluorescent emission as function of labeling density” value is reported as “increases with higher labeling density”. In addition, the “fluorescence intensity (total radiance normalized to tumor size) compared with IRDye-800CW conjugates” value in the data set on MDA-MB-468 tumor (DOL 4, 10, 5, 1 μg, 4 h to 7 days) was “significantly higher fluorescence intensity”. In addition, in the data set on MDA-MB-468 tumor, the “tumor signal visualization over dosage range” value is on record as “Clearly discernable signals”.
